Marks after values point to notes of the source that are not given here.
Key:
[1] = Nanoparticle size by dynamic light scattering; format: physicochemical
Experimental: The volume and size distribution of the nanoparticles was determined by dynamic light scattering at 633 nm (Zetasizer Nano ZS, Malvern Instruments Limited, Malvern, Worcestershire, UK). Nanoconjugate size was also measured using purified samples, diluted to 0.2 mg/mL and contrasted by evaporation of 1 nm platinum layer in carbon-coated grids, before being visualized in a Hitachi H-7000 transmission electron microscope (TEM), as described33.

CXCR4^+ SW1417 CRC cells = assay: Internalization in CXCR4+ SW1417 CRC cells (flow cytometry, AMD3100 competition); format: cell-based, human; parameters: internalization measured by fluorescence emission using flow cytometry: dose or concentration left out as unconfirmed; conditions: 1 hour exposure
Experimental: CXCR4+ SW1417-luc CRC cells were cultured in modified Eagle's medium (Gibco, Rockville, MD) supplemented with 10% fetal calf serum (Gibco), and incubated at 37° C. and 5% CO2 in a humidified atmosphere. […] Fluorescence emission was measured with a D detector (530/30 nm band pass filter). To assess specificity for CXCR4 receptor-mediated internalization, competition studies were performed incubating CRC SW1417 cells with the CXCR4 antagonist AMD3100 (Sigma Aldrich) in a 1:10 (protein:antagonist) molar ratio for 1 h before exposure to the nanoconjugate at […] for an additional hour.
The cells were washed in phosphate-buffered saline (Sigma-Aldrich). Live cells were recorded by TCS-SP5 confocal laser scanning microscopy (Leica Microsystems, Heidelberg, Germany) using a Plan Apo 63×/1.4 (oil HC×PL APO lambda blue) objective as described. To determine particle localization inside the cell, stacks of 10-20 sections forevery 0.5 μm of cell thickness were collected and three-dimensional models were generated using Imaris version 6.1.0 software (Bitplane, Zurich, Switzerland).

SW1417 CRC cells = assay: MTT cytotoxicity in SW1417 CRC cells; format: cell-based, human; conditions: compared to free oligo-FdU, 72 h, 1.0-1,000 nM
CXCR4^+ HeLa cells = assay: MTT cytotoxicity in CXCR4+ HeLa cells; format: cell-based, human; conditions: compared to free oligo-FdU
Experimental: Afterwards, a graphic displaying the linearized T22-GFP-H6-FdU dose-response trend line representation to compare cell viability for both compounds was constructed. Reduction of cell viability was also determined by optical microscope images of HeLa cells exposed to 1 μM […] for 48 h, as compared to T22-GFP-H6 or free FdU.

[2] = tested on: CXCR4^+ SW1417 CRC metastases; assay: Prevention of metastasis protocol, SC+ORT CXCR4+ SW1417 CRC model; format: in vivo, NOD/SCID mice
Experimental: Thus, a SC+ORT model, was produced: when SC tumors reached a volume of 700 mm3, mice were sacrificed by cervical dislocation and tumours were excised, discarding the necrotic areas. Three hundred mg of viable tumour tissue was then cut into pieces and disaggregated in a mix of 0.05% trypsin (Invitrogen) and 100 mg/ml DNase (Sigma-Aldrich). The mix was pipetted 30 times, using a 10 ml pipette, and incubated for 10 minutes at 37° C. with shaking. It was then re-pipetted 30 times, using 10 ml, 3 ml and 1 ml pipettes, and re-incubated for 5 minutes at 37° C. with shaking. This re-pipetting step was then repeated. The obtained SW1417 single-cell suspension was filtered through a cell strainer and centrifuged at 1,000 g for 10 minutes before counting the cells. Then 2×10^6 cells, […] resuspended in 50 μl of media, were microinjected in the cecum of each mouse, following the method described above.
The SC+ORT metastatic CRC model developed in NOD/SCID mice was used to evaluate the capacity of the nanoconjugate for metastasis prevention.
(§1) At necropsy, the number and size of visible metastases in the organs where dissemination is expected in colorectal cancer (lymph nodes, liver, lung and peritoneum) were recorded for each mouse in all compared groups. Also the number of metastatic foci that emitted bioluminiscence (derived from the SW1417-luci CRC cells) were counted ex vivo in the target organs for metastasis, using the IVIS® 200-Spectrum (Perkin-Elmer). Samples for histopathological and immunohistochemical analyses were collected and processed. Two independent observers analyzed H&E stained samples to count the number and measure the size of all observed metastatic foci in three (metastasis prevention experiment) or six (regression of metastasis experiment) sections of each organ in each mouse. The images were taken and the measurements were performed with an Olympus microscope with the CellD Olympus software (v3.3). […] The obtained results were used to study a possible correlation between CXCR4^+ CCF and antimetastatic effect at the different sites.
(§2) In order to analyze differences between control and experimental groups of affected mice in metastatic rates at the different organs, Fisher's exact test was used. The Mann-Whitney test was used to compare number and size of metastatic foci in the affected organs among groups. All quantitative values were expressed as mean±SE and the statistical tests were performed using SPSS version 11.0 (IBM, New York, USA). Differences among groups was considered significant at a p<0.05.

[3] = tested on: CXCR4^+ SW1417 CRC metastases; assay: Regression of established metastasis protocol, orthotopic CXCR4+ SW1417 CRC model; format: in vivo, Swiss nude mice
Experimental: Swiss nude mice were anesthetized with ketamine and xylazine, exteriorizing their cecum by a laparotomy. 2×106 CXCR4^+ SW1417-luci CRC cells (expressing luciferase, to allow ex vivo bioluminescent identification of metastatic foci in affected organs at the end of therapy) were suspended in […] of modified Eagle's medium, and loaded into a sterile micropipette. The cell suspension was slowly injected, under a binocular lens, with an approximate 30° angle and its tip introduced 5 mm into the cecal wall. Afterward, a slight pressure was applied with a cotton stick at approximately 2 mm from the injection point in the direction of the pipette axis. The pipette was pulled out and the area around the injection cleaned with 3% iodine. After injection, the gut was returned to the abdominal cavity and closed with surgical staples.
The orthotopic and metastatic CRC model developed in Swiss nude mice was employed to perform experiments of metastasis regression. […] The experiment was finished when the first animal of the buffer-treated-group had to be euthanized. See below the studied parameters to evaluate the antimetastatic effect.
as §1, §2

[4] = Prevention protocol, 3 histology sections, mean + SE
[5] = versus free oligo-FdU mice, histology, end of experiment

## T22-GFP-H6-FdU: nanoconjugate of T22-GFP-H6 protein nanoparticle covalently bound via maleimide linker to thiol-functionalized pentameric floxuridine oligonucleotide (oligo-FdU)
[1]; Example 2, unit not given
  size determined by dynamic light scattering: 14.6+0.14
[1]; Example 3
  size (DLS): 14.66+0.14 nm
CXCR4^+ SW1417 CRC cells
  internalization measured by fluorescence emission using flow cytometry: internalized
SW1417 CRC cells
  cytotoxicity measured by cell viability or phase-contrast microscopy: significantly higher cytotoxicity than free oligo-FdU
CXCR4^+ HeLa cells
  cytotoxicity in HeLa cells: higher cytotoxicity than free oligo-FdU
[2]; Prevention protocol, 20 μg (or equimolecular) q3d x12 i.v., 3 histology sections, mean + SE
  LN foci, mean foci number per mouse: 2.0 ± 0.4 ^a
[2]; [4]
  Liver foci, mean foci number per mouse: 0.2 ± 0.1 ^b,c
  Lung foci, mean foci number per mouse: 1.3 ± 0.9 ^d,e
  Peritoneal foci, mean foci number per mouse: 0.4 ± 0.3 ^f,g
[2]; compared to free oligo-FdU
  reduction in the size of peritoneal foci: 2.4 fold
[2]; end of prevention experiment
  Metastasis Liver [%]: [17]^a %
  Metastasis Liver, affected/total mice: 2/12
  Metastasis Lung [%]: [17]^b,c %
  Metastasis Lung, affected/total mice: 2/12
  Metastasis Lymph nodes [%]: [75] %
  Metastasis Lymph nodes, affected/total mice: 9/12
  Metastasis Peritoneal [%]: [17]^d %
  Metastasis Peritoneal, affected/total mice: 2/12
  metastasis development in liver and lung by ex vivo luminescence: blocked metastasis development
  remaining CXCR4^+ CCF in liver, lung and peritoneal metastatic tissue (anti-CXCR4 IHC): higher reduction
[2]; histology, end of experiment
  prevention of LN metastases: did not prevent
[2]; mean foci size
  Metastasis Size, Liver: 8.7 μm^2 × 10^−3
  Metastasis Size, Lung: 15.1 μm^2 × 10^−3
  Metastasis Size, Lymph nodes: 79.3 μm^2 × 10^−3
  Metastasis Size, Peritoneal: 126.6 μm^2 × 10^−3
[2]; mice bearing a primary tumor out of total mice per group
  Primary tumor Positive/#Mice: 12/12
[2]; percent of mice bearing a primary tumor
  Primary tumor [%]: [100] %
[2]; prevention experiment, compared to buffer-treated mice
  primary tumor growth by in vivo bioluminescence emission: no significant inhibition
[2]; [5]
  reduction in the total number of metastases in liver or lung: 3.1-3.7 times
  reduction in the total number of metastases in the peritoneum: 10.3 fold
[3]; Regression protocol, 20 μg (or equimolecular) q3d x10 i.v., 6 histology sections, mean + SE
  LN foci, mean foci number per mouse: 0.4 ± 0.1 ^h,i
[3]; Regression protocol, 6 histology sections, mean + SE
  Lung foci, mean foci number per mouse: 0.7 ± 0.4 ^k,l,m
[3]; compared to free oligo-FdU
  regression of established lung metastasis: more potent than free oligo-FdU
[3]; regression experiment, compared to buffer treated animals
  primary tumor growth by in vivo bioluminescence emission: significantly inhibited tumor growth

Source: patent publication US12202866B2, “Therapeutic nanoconjugates and uses thereof” (UNIVERSITAT AUTÒNOMA DE BARCELONA (UAB), priority 2017, dated 2025)
